Literature values, collected in patent US20240173301A1, “2-IMINOBIOTIN FOR USE IN THE TREATMENT OF STROKE” (NEUROPHYXIA B.V., priority 2021, published 2024).
Like-named read-outs stand apart in the source and are kept apart here. Where no end group is shown, it is not given here.

Assays:
[1] = single dose
[2] = adult human patients after cardiac arrest
[3] = in vivo
[4] = healthy volunteers; preclinical safety; Phase I and II studies in neonates with asphyxia and adults after cardiac arrest

Row | Compound | clinical outcome ([1]; alteplase-treated stroke patients) | clinical outcome ([1]; stroke patients that did not receive alteplase) | tolerability of eGFR adjusted dose [2] | effect on tissue damage after ischemia-reperfusion [3] | concentration range at which 2-IB is most active in vitro (neuronal culture) | safety [4]
1 | YGRKKRRQRRRKLSSIESDV [nerinetide] | did not show favorable outcomes | significant improvement | – | – | – | –
2 | N=C1N[C@H]2[C@H](CS[C@H]2CCCCC(=O)O)N1 [2-IB, 2-iminobiotin] | – | – | tolerated without clinical drug-related adverse events | prevents (further) tissue damage | around 30 ng/ml | proven to be safe
